Data set [1] deals with parental C2BBe1 cells (wild type). The conditions noted are these: Caco-2. How it is done:
(§1) Both wild type cells (parental C2BBe1 cells) and BCRP knockout cells were seeded onto 24-well transwell plates and cultured for 21 days, following a standard protocol for intestinal efflux transporter assays previously developed using Caco-2 cells. The permeability of test compounds in both the apical to basal (A to B) and basal to apical (B to A) directions was measured following a two hour incubation and the efflux values calculated. […] Digoxin is a known MDR1 substrate, while CDCFDA is selective for the MRP2 transporter. Two additional compounds were used as controls, atenolol and metoprolol, which are known to not be substrates for either of these transporters.
(§2) The BCRP and MDR1 transporter genes were individually knocked out and an MDR1/BCRP double knockout was also generated in C2BBe1 cells using zinc finger nuclease technology. Cells were analyzed and expanded as described above and then tested for functional activity in the standard transwell assay. Two substrates were utilized—estrone 3-sulfate as a selective substrate for BCRP and digoxin as a selective substrate for MDR1. Metoprolol was used as a control.

The test system of data set [2] is MDR1/BCRP double knockout C2BBe1 cells. The method, then:
as §1, §2

In data set [3] the test system is MDR1 knockout C2BBe1 cells. The method, then:
as §1, §2

In data set [4] the test system is BCRP knockout C2BBe1 cells. The method, then: The wild-type BCRP gene was knocked out in C2BBe1 cells using zinc finger nuclease technology to generate a stable cell line. Cells were sorted and single cell cloned. Cells were analyzed for the desired mutations and positive clones were chosen for further expansion and analysis. Quantitative PCR was used to evaluate mRNA expression of the cell and compared to wild type cell. Whole cell lysates prepared from these clones were subjected to immunoblotting for analysis of BCRP protein expression level. […] A single BCRP knockout cell clone was selected for functional characterization of efflux activity using several known transporter-selective substrates (e.g. estrone 3-sulfate, digoxin and CDCFDA).
as §1, §2

For `C[C@H]1O[C@@H](O[C@H]2[C@@H](O)C[C@H](O[C@H]3[C@@H](O)C[C@H](O[C@H]4CC[C@@]5(C)[C@H](CC[C@@H]6[C@@H]5C[C@@H](O)[C@]5(C)[C@@H](C7=CC(=O)OC7)CC[C@]65O)C4)O[C@@H]3C)O[C@@H]2C)C[C@H](O)[C@@H]1O` [digoxin], the efflux ratio entry is “high” in data set [1], “inhibited” in data set [2], “inhibited” in data set [3] and “high” in data set [4]. The “efflux ratio in the knockout cells compared to the parental cells” value in data set [4] is “unaffected”.
For the compound `C[C@]12CC[C@@H]3c4ccc(OS(=O)(=O)O)cc4CC[C@H]3[C@@H]1CCC2=O` [estrone 3-sulfate], the efflux ratio entry was “high” in data set [1], “inhibited” in data set [2], “high” in data set [3] and “inhibited” in data set [4]. In addition, in data set [4], the “efflux ratio in the knockout cells compared to the parental cells” value is given as “greatly reduced”.

These data come from patent US20160266093A1, “CELLS HAVING DISRUPTED EXPRESSION OF PROTEINS INVOLVED IN ADME AND TOXICOLOGY PROCESSES” (SIGMA-ALDRICH CO. LLC, priority 2010, published 2016).
